Measured values taken from publication PMC3764403 (Chemistry & Biology, 2008).
Where two headings read alike, the source gives them in different places. Numbered stars: 1 amine (or outer) side, 2 acyl side, 3 side chain; on linkers, the order of the positions; unused ones are H or OH. Square brackets hold non-standard residues; d marks the D form. Side chains are listed from the residue outwards. Peptide text beside a SMILES is read from it. NMeF = CN[C@@H](Cc1ccccc1)C(=O)O; CO = O=C([*:1])[*:2]

Assays:
[1] = target: T1, chitinase B1 from Aspergillus fumigatus (AfChiB1) (Aspergillus fumigatus, UniProt Q873X9); assay: biochemical; details: for AfChiB1 BEI (Binding Efficiency Index): BEI = −log(Ki)/M, M in kilodaltons, Ki derived from IC50 by Cheng and Prusoff equation
T1 construct: made in house; host or cells: Escherichia coli
Description: Chitinase activities for AfChiB1 ([Rao et al., 2005b]), hCHT ([Boot et al., 1998]), and total chitinase activity in lung homogenate samples from a mouse model of chronic asthma were determined as previously described ([Schüttelkopf et al., 2006]). […] AfChiB1 (2 nM) was incubated with 20 μM 4-methylumbelliferyl-β-D-N-N'-diacetylchitobiose (4MU-GlcNAc2; Sigma) and 0.25 mg/ml bovine serum albumin in 100 mM citric acid, 200 mM Na2HPO4 (pH 5.5). hCHT (0.3 nM) was incubated with 22 μM 4-methylumbelliferyl-β-D-N-N'-triacetylchitobiose (4MU-GlcNAc3; Sigma) and 0.25 mg/ml bovine serum albumin in 100 mM citric acid, 200 mM Na2HPO4 (pH 5.2). Lung homogenate (39 μg/ml) (obtained as described previously [[Schüttelkopf et al., 2006]]) was incubated with 20 μM 4MU-GlcNAc2 in 100 mM citric acid, 200 mM Na2HPO4 (pH 5.5). All reactions were run for 10 min at 37°C, and liberated 4-methylumbelliferone (4MU) was quantified after addition of 25 μl 3 M glycine-NaOH (pH 10.6) using an Flx 800 microtiterplate fluorescence reader (Bio-Tek instruments) with 40 nm slits and excitation and emission wavelengths of 360 nm and 460 nm, respectively.

[2] = target: T1, chitinase B1 from Aspergillus fumigatus (AfChiB1); details: Table 1, argifin value reported previously, ref Rao et al., 2005b, Dixon et al.; cited from earlier work
[3] = target: chitinase B from Serratia marcescens; set-up: method as in Houston et al., 2002b; details: ref Houston et al., 2002b; read-out: IC50 against chitinase B from Serratia marcescens; cited from earlier work

CNC(=N)NC(=O)NC [Dimethylguanylurea, dimethylguanylurea]
AfChiB1 BEI (Binding Efficiency Index) [1]: 27.7

CNC(=O)NC(=N)NCCCC(NC(C)=O)C(=O)NC (stereo not shown) [Monopeptide]
AfChiB1 BEI (Binding Efficiency Index) [1]: 15.3 | IC50 ([1]; read-out: IC50 against AfChiB1): 81 µM

argifin
AfChiB1 BEI (Binding Efficiency Index) [1]: 11.7 | IC50 [2]: 27 nM | IC50 [3]: 33 µM

CNC(=O)NC(=N)NCCC[C@H](NC(C)=O)C(=O)N(C)[C@@H](Cc1ccccc1)C(=O)N[C@@H](CC(=O)O)C(=O)O [Tripeptide] (Ac-Arg([CO-NHMe])-[NMeF]-Asp-OH)
AfChiB1 BEI (Binding Efficiency Index) [1]: 10.2
